Data published in patent publication EP0553186B1, “METHOD FOR PRODUCING T H?-I[…] T LYMPHOCYTES” (IMMUNEX CORPORATION, priority 1990, dated 1992).

Test system: CD8^+ T cell clone T81
Assay: Outgrowth of T81 CTL under G418 drug selection
Type: cell-based, mouse
Settings: parental T81 cells, doses used for selection
Description: • A. Selection of CD8^+T cell clone T81 transduced with retroviral vector L.IL-1RSN encoding murine IL-1R. The retroviral vector L.IL-1RSN encoding the murine IL-1 receptor was introduced into the tumor specific CD3^+, CD8^+ T cell clone T81 as follows. T81 is specific for an antigen expressed on the K1735 mouse melanoma cell line. T81 was propagated by stimulation every 8-10 days with tumor antigen and irradiated syngeneic splenocytes as feeder cells. Recombinant IL-2 (50 U/ml) was added to the cultures 48 hours following stimulation. […] The cells were analyzed for M5 binding on a Beckton-Dickinson FACscan analyzer. […] The IL-1 receptors on the T81 cells infected with the L.IL-1RSN vector were analyzed for ^125I-IL-1α binding as previously described (Dower et al., Nature (Lond) 324 :266,1986). […] Nonspecific binding of ^125I-IL-1 was measured by incubation in the presence of an excess of unlabelled IL-1. At the end of the incubation, bound and free ^125I-IL-1 were separated by centrifugation over a phthalate oil mixture and the amount of radiolabel in each fraction measured. The data were corrected for non-specific binding and then analyzed by nonlinear least square fitting to estimate the number of IL-1R/cell. […]

SMILES: CN[C@@H]1[C@@H](O)[C@@H](O[C@@H]2[C@@H](O)[C@H](O[C@H]3O[C@H]([C@@H](C)O)[C@@H](O)[C@H](O)[C@H]3N)[C@@H](N)C[C@H]2N)OC[C@]1(C)O [G418]
- toxicity of G418 to cells: toxic to the parental cells
